{
  "source": "patent EP3294317B1",
  "about": "“ENHANCED ANTIBIOTIC COMPOSITION” (Universitat Autònoma de Barcelona, priority 2015, dated 2016)",
  "key": {"A. baumannii 6799 [1]": {"system": "A. baumannii 6799", "experiment": "Colistin broth microdilution MIC with potentiator compounds, resistant clinical isolates (Example 3)", "format": "cell-based, Acinetobacter baumannii", "settings": "MIC in the presence of 1.0% DMSO / MIC in the presence of 0.1 mM compound and 1.0% DMSO, positive = increased susceptibility, 1 = no effect", "description": "(§1) The potentiator effect of the compound of the invention and other compounds disclosed herein was tested using colistin sulfate as antibiotic and in combination with the enhancer compounds in front of resistant clinical isolates.\n(§2) Tests were performed to determine the potentiator effect of the compound of the invention and other compounds disclosed herein with multidrug-resistant S. maltophilia and A. baumannii clinical strains as shown in Table 5: TABLE 5\n(§3) For this experiment the potentiator compound was added to a colistin broth microdilution assay at a final concentration of 0.1mM. MICs were determined as described in the Example 1.\n(§4) Colistin minimal inhibitory concentration (MIC), expressed in µg/mL, and the fold increase in bacterial susceptibility to colistin when combined with the potentiator compound (expressed as MIC in the presence of 1.0% DMSO / MIC in the presence of 0.1 mM of each potentiator compound and 1.0% DMSO) are shown in Table 6: […]"}, "A. baumannii 6963 [2]": {"system": "A. baumannii 6963", "experiment": "Colistin broth microdilution MIC with potentiator compounds, resistant clinical isolates (Example 3)", "format": "cell-based, Acinetobacter baumannii", "settings": "MIC in the presence of 1.0% DMSO / MIC in the presence of 0.1 mM compound and 1.0% DMSO, positive = increased susceptibility, 1 = no effect", "description": "as §1, §2, §3, §4"}, "P. aeruginosa ATCC 27853": {"system": "P. aeruginosa ATCC 27853", "experiment": "Broth microdilution MIC of other antibiotics with potentiator compounds (Example 2)", "format": "cell-based, Pseudomonas aeruginosa", "settings": "any of ciprofloxacin, amikacin, levofloxacin, tigecycline, imipenem, TMP/SMX (1:19), 0.1 mM potentiator, 1.0% DMSO, 'none' = no antibiotic potentiated", "description": "(§5) Following the procedure of Example 1, ciprofloxacin, amikacin, levofloxacin, tigecycline, imipenem and the combination trimethoprim/sulfamethoxasole (1:19) were tested. All were purchased from Sigma-Aldrich Co.\n(§6) Minimal inhibitory concentration (MIC) of the antibiotic or the test combinations were determined by the broth microdilution method.\n(§7) Antibiotic stock solutions were prepared according to CLSI recommendations and sterilizing by passage through 0.20 µm filters.\n(§8) Antimicrobial susceptibility testing of these isolates was performed using the broth microdilution (BMD) method, according to CLSI guidelines.\n(§9) The fold increase in bacterial susceptibility to antibiotics when combined with the potentiator compound (expressed as MIC in the presence of 1.0% DMSO / MIC in the presence of 0.1 mM of each potentiator compound and 1.0% DMSO) are shown in Table 4: […]"}, "A. baumannii 6799 [3]": {"system": "A. baumannii 6799", "experiment": "Broth microdilution MIC of other antibiotics with potentiator compounds, clinical isolates (Example 4)", "format": "cell-based, Acinetobacter baumannii", "description": "(§10) Following the procedure of Example 3, ciprofloxacin, amikacin, levofloxacin, imipenem and the combination trimethoprim/sulfamethoxasole (1:19) were tested. All were purchased from Sigma-Aldrich Co.\nas §6, §7, §8\n(§11) The fold increase in bacterial susceptibility to antibiotics when combined with the potentiator compound (expressed as MIC in the presence of 1.0% DMSO / MIC in the presence of 0.1 mM of each potentiator compound and 1.0% DMSO) are shown in Table 7: […]"}, "A. baumannii 6963 [4]": {"system": "A. baumannii 6963", "experiment": "Broth microdilution MIC of other antibiotics with potentiator compounds, clinical isolates (Example 4)", "format": "cell-based, Acinetobacter baumannii", "settings": "MIC in 1.0% DMSO / MIC with 0.1 mM compound and 1.0% DMSO", "description": "as §10, §6, §7, §8, §11"}, "[5]": {"system": "S. maltophilia ATCC 13637", "experiment": "Broth microdilution MIC of other antibiotics with potentiator compounds (Example 2)", "format": "cell-based, Stenotrophomonas maltophilia", "description": "as §5, §6, §7, §8, §9"}, "[6]": {"system": "Pseudomonas aeruginosa PAO1", "experiment": "Colistin broth microdilution MIC with potentiator compounds (Example 1)", "format": "cell-based", "settings": "P. aeruginosa PAO1; MIC in the presence of 1.0% DMSO / MIC in the presence of 0.1 mM potentiator compound and 1.0% DMSO; positive = increased, negative = decreased susceptibility, 1 = no effect"}, "S. maltophilia K279a": {"system": "S. maltophilia K279a", "experiment": "Colistin broth microdilution MIC with compound of formula I prepared in methanol or DMSO (Example 6)", "format": "cell-based, Stenotrophomonas maltophilia", "settings": "MIC in the presence of 1.0% DMSO / MIC in the presence of 0.1 mM of compound of formula I and 1.0% DMSO", "description": "(§12) The potentiator effect of the compound of the invention in a new formulation was tested by using colistin sulphate as antibiotic in combination with the enhancer compound of formula I in front of resistant clinical isolates. […]\n(§13) Tests were performed to determine the potentiator effect of the compound of the invention with two colistin resistant S. maltophilia strains as shown in Table 9. S. maltophilia K279a is a reference clinical strain. The origin of clinical strain OC323 together with K279a has been described previously (Huedo et al., Two Different rpf Clusters Distributed among a Population of Stenotrophomonas maltophilia Clinical Strains Display Differential Diffusible Signal Factor Production and Virulence Regulation, J. Bacteriol., 2014, 196, 2431-2442).\n(§14) Selected compound of formula I was first dissolved in 100% of Methanol (HPLC Gradient Grade CHROMASOLV. Sigma, 34885-1L-R) to 10 mM. The compound was fairly soluble in methanol up to 10 mM and required vigorous vortex.\n(§15) […] MICs were determined as described in the Example 1.\n(§16) Strains colistin minimal inhibitory concentration (MIC), expressed in µg/mL, and the fold increase in bacterial susceptibility to colistin when combined with the potentiator compound previously dissolved in methanol ([…]) are shown in Table 9: TABLE 9"}, "S. maltophilia OC323": {"system": "S. maltophilia OC323", "experiment": "Colistin broth microdilution MIC with compound of formula I prepared in methanol or DMSO (Example 6)", "format": "cell-based, Stenotrophomonas maltophilia", "settings": "MIC in the presence of 1.0% DMSO / MIC in the presence of 0.1 mM of compound of formula I and 1.0% DMSO", "description": "as §12, §13, §14, §15, §16"}, "[7]": {"system": "Salmonella enterica subsp. enterica ATCC 14028", "experiment": "Colistin broth microdilution MIC with potentiator compounds (Example 1)", "format": "cell-based", "settings": "S. enterica ATCC 14028; MIC in the presence of 1.0% DMSO / MIC in the presence of 0.1 mM potentiator compound and 1.0% DMSO; positive = increased, negative = decreased susceptibility, 1 = no effect"}, "[8]": {"system": "Acinetobacter baumannii ATCC 15308", "experiment": "Colistin broth microdilution MIC with potentiator compounds (Example 1)", "format": "cell-based", "settings": "A. baumannii ATCC 15308; MIC in the presence of 1.0% DMSO / MIC in the presence of 0.1 mM potentiator compound and 1.0% DMSO; positive = increased, negative = decreased susceptibility, 1 = no effect"}, "[9]": {"system": "Escherichia coli ATCC 25922", "experiment": "Colistin broth microdilution MIC with potentiator compounds (Example 1)", "format": "cell-based", "settings": "E. coli ATCC 25922; MIC in the presence of 1.0% DMSO / MIC in the presence of 0.1 mM potentiator compound and 1.0% DMSO; positive = increased, negative = decreased susceptibility, 1 = no effect"}, "[10]": {"system": "Enterobacter aerogenes ATCC 13048", "experiment": "Colistin broth microdilution MIC with potentiator compounds (Example 1)", "format": "cell-based", "settings": "E. aerogenes ATCC 13048; MIC in the presence of 1.0% DMSO / MIC in the presence of 0.1 mM potentiator compound and 1.0% DMSO; positive = increased, negative = decreased susceptibility, 1 = no effect"}, "[11]": {"settings": "MIC in 1.0% DMSO / MIC with 0.1 mM compound and 1.0% DMSO"}, "[12]": {"settings": "MIC in 1.0% DMSO / MIC with 0.1 mM potentiator compound and 1.0% DMSO"}},
  "data": [
    {"compound": "CN(C)CCNC(=O)c1cccc(CNC(=O)Nc2ccc3c(c2)Cc2ccccc2-3)c1", "note": "[I, N-[2-(dimethylamino)ethyl]-3-[(9H-fluoren-2-ylcarbamoylamino)methyl]benzamide]", "values": [
      {"measurement": "Fold increase in bacterial susceptibility to colistin", "setting": "A. baumannii 6799 [1]", "result": "+8 fold"},
      {"measurement": "Fold increase in bacterial susceptibility to colistin", "setting": "A. baumannii 6963 [2]", "result": ">4", "unit": "fold"},
      {"measurement": "Fold increase in bacterial susceptibility to antibiotic indicated", "setting": "P. aeruginosa ATCC 27853", "result": "none"},
      {"measurement": "Fold increase in bacterial susceptibility to Amikacin", "setting": "A. baumannii 6799 [3]; [11]", "result": 2, "unit": "fold"},
      {"measurement": "Fold increase in bacterial susceptibility to Ciprofloxacin", "setting": "A. baumannii 6799 [3]; [11]", "result": 8, "unit": "fold"},
      {"measurement": "Fold increase in bacterial susceptibility to Imipenem", "setting": "A. baumannii 6799 [3]; [11]", "result": 4, "unit": "fold"},
      {"measurement": "Fold increase in bacterial susceptibility to Levofloxacin", "setting": "A. baumannii 6799 [3]; [11]", "result": 2, "unit": "fold"},
      {"measurement": "Fold increase in bacterial susceptibility to TMP/SMX", "setting": "A. baumannii 6799 [3]; Trimethoprim:sulfamethoxazole 1:19, MIC in 1.0% DMSO / MIC with 0.1 mM compound and 1.0% DMSO", "result": 2, "unit": "fold"},
      {"measurement": "Fold increase in bacterial susceptibility to Ciprofloxacin", "setting": "A. baumannii 6963 [4]", "result": "Ciprofloxacin (2) Levofloxacin (2) Imipenem (2) fold"},
      {"measurement": "Fold increase in bacterial susceptibility to Imipenem", "setting": "A. baumannii 6963 [4]", "result": "Ciprofloxacin (2) Levofloxacin (2) Imipenem (2) fold"},
      {"measurement": "Fold increase in bacterial susceptibility to Levofloxacin", "setting": "A. baumannii 6963 [4]", "result": "Ciprofloxacin (2) Levofloxacin (2) Imipenem (2) fold"},
      {"measurement": "Fold increase in bacterial susceptibility to Amikacin", "setting": "[5]; [12]", "result": 4, "unit": "fold"},
      {"measurement": "Fold increase in bacterial susceptibility to Ciprofloxacin", "setting": "[5]; [12]", "result": 2, "unit": "fold"},
      {"measurement": "Fold increase in bacterial susceptibility to Levofloxacin", "setting": "[5]; [12]", "result": 2, "unit": "fold"},
      {"measurement": "Fold increase in bacterial susceptibility to TMP/SMX", "setting": "[5]; Trimethoprim:sulfamethoxazole 1:19, MIC in 1.0% DMSO / MIC with 0.1 mM potentiator compound and 1.0% DMSO", "result": 2, "unit": "fold"},
      {"measurement": "Fold increase in bacterial susceptibility to colistin", "setting": "[6]", "result": "+2 fold"},
      {"measurement": "Fold increase in bacterial susceptibility to colistin", "setting": "S. maltophilia K279a", "result": "+4 fold"},
      {"measurement": "Fold increase in bacterial susceptibility to colistin", "setting": "S. maltophilia OC323", "result": "+4 fold"},
      {"measurement": "Fold increase in bacterial susceptibility to colistin", "setting": "[7]", "result": "+2 fold"},
      {"measurement": "Fold increase in bacterial susceptibility to colistin", "setting": "[8]", "result": "+4 fold"},
      {"measurement": "Fold increase in bacterial susceptibility to colistin", "setting": "[9]", "result": "+2 fold"},
      {"measurement": "Fold increase in bacterial susceptibility to colistin", "setting": "[10]", "result": "+2 fold"}
    ]}
  ]
}
